According to US11214594B2, “Antimicrobial peptide having synergistic antibacterial effect with antibiotics on multidrug resistant bacteria, and use thereof” (priority 2016, dated 2022):
≈ marks a conversion by molar mass, not a printed value. Where a SMILES comes first, the peptide text is derived from it.

Columns and labels:
[1] = tested on: P. aeruginosa; test: microbe, parasite or virus in culture; format: cell-based, Pseudomonas aeruginosa
Method in brief: (§1)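 Broth microdilution in MH medium: bacterial strains diluted to 2×10^6 CFU were mixed with equal volumes of peptide serially diluted twofold in MH medium.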

[2] = tested on: A. baumannii; test: microbe, parasite or virus in culture; format: cell-based, Acinetobacter baumannii
Method in brief: as §1

[3] = tested on: MDRAB 12035; test: microbe, parasite or virus in culture; format: cell-based, Acinetobacter baumannii
Method in brief: as §1

[4] = tested on: MDRST 8007; test: Minimal inhibitory concentration (MIC), single agent; format: cell-based, Salmonella typhimurium; conditions: agent alone
Method in brief: as §1

[5] = tested on: S. epidermidis; test: microbe, parasite or virus in culture; format: cell-based, Staphylococcus epidermidis
Method in brief: as §1

[6] = tested on: E. coli; test: MIC of antibiotic during combined treatment with antimicrobial peptide; format: cell-based, Escherichia coli; conditions: for Antibiotic MIC, Erythromycin / Antibiotic MIC, Linezolid / Antibiotic MIC, Vancomycin: E. coli
Method in brief: (§2)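 Using MH broth, we determined combination MICs by titrating the antibiotic into wells and then repeating under the reverse dilution scheme.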

[7] = tested on: A. baumannii; test: as above; format: cell-based, Acinetobacter baumannii; conditions: for Antibiotic MIC, Erythromycin / Antibiotic MIC, Linezolid / Antibiotic MIC, Vancomycin: A. baumannii
Method in brief: as §2

[8] = combined with peptide at 1 μg/ml
[9] = combined with peptide at 2 μg/ml
[10] = combined with peptide at 4 μg/ml
[11] = combined with peptide at 6 μg/ml
[12] = combined with peptide at 8 μg/ml
[13] = combined with peptide at 16 μg/ml
[14] = combined with peptide at 32 μg/ml

CC[C@H](C)[C@H](NC(=O)[C@H](CCCCN)NC(=O)[C@H](Cc1c[nH]c2ccccc12)NC(=O)[C@@H](N)CCCNC(=N)N)C(=O)N[C@@H](Cc1ccccc1)C(=O)N[C@@H](CCCCN)C(=O)N[C@@H](CCCCN)C(=O)N[C@H](C(=O)N1CCC[C@H]1C(=O)N[C@@H](CCCCN)C(=O)N[C@@H](CC(C)C)C(=O)N[C@@H](CC(C)C)C(=O)N[C@@H](Cc1c[nH]cn1)C(=O)N[C@@H](CO)C(=O)N[C@@H](C)C(=O)N[C@@H](CCCCN)C(=O)N[C@@H](CCCCN)C(=O)N[C@@H](Cc1c[nH]c2ccccc12)C(N)=O)[C@@H](C)CC [PapMA-9, RWK IFK KIP KLL HSA KKW-NH2] (H-RWKIFKKIPKLLHSAKKW-NH2; N-terminus assumed)
Minimal inhibitory concentration MIC [1]: 8 µg/mL (≈ 3.47 µM)
Minimal inhibitory concentration MIC [2]: 32 µg/mL (≈ 13.9 µM)
Peptide MIC, peptide alone [2]: 32 µg/mL
Minimal inhibitory concentration MIC [3]: 64 µg/mL (≈ 27.7 µM)
Peptide MIC, peptide alone [3]: 64 µg/mL
Minimal inhibitory concentration MIC [4]: 64 µg/mL (≈ 27.7 µM)
Minimal inhibitory concentration MIC [5]: >128 µg/mL
Synergistic effect of antibacterial activity with existing antibiotics compared with PapMA-1 ([6]; E. coli and MDREC1229): higher level than the PapMA-1 peptide
Antibiotic MIC, Erythromycin ([6]; erythromycin combined with peptide at 1 μg/ml): 128 µg/mL
Antibiotic MIC, Erythromycin ([6]; erythromycin combined with peptide at 2 μg/ml): 64 µg/mL
Antibiotic MIC, Erythromycin ([6]; erythromycin combined with peptide at 4 μg/ml): 8 µg/mL
Antibiotic MIC, Erythromycin ([6]; erythromycin combined with peptide at 6 μg/ml): 2 µg/mL
Antibiotic MIC, Erythromycin ([6]; erythromycin combined with peptide at 8 μg/ml): 0.5 µg/mL
Antibiotic MIC, Erythromycin ([6]; erythromycin combined with peptide at 16 μg/ml): 0.125 µg/mL
Antibiotic MIC, Erythromycin ([6]; erythromycin combined with peptide at 32 μg/ml): 0 µg/mL
Antibiotic MIC, Erythromycin ([6]; erythromycin combined with peptide at 64 μg/ml): 0 µg/mL
Antibiotic MIC, Linezolid ([6]; linezolid combined with peptide at 1 μg/ml): >128 µg/mL
Antibiotic MIC, Linezolid ([6]; linezolid combined with peptide at 2 μg/ml): >128 µg/mL
Antibiotic MIC, Linezolid ([6]; linezolid combined with peptide at 4 μg/ml): 16 µg/mL
Antibiotic MIC, Linezolid ([6]; linezolid combined with peptide at 6 μg/ml): 8 µg/mL
Antibiotic MIC, Linezolid ([6]; linezolid combined with peptide at 8 μg/ml): 4 µg/mL
Antibiotic MIC, Linezolid ([6]; linezolid combined with peptide at 16 μg/ml): 2 µg/mL
Antibiotic MIC, Linezolid ([6]; linezolid combined with peptide at 32 μg/ml): 0 µg/mL
Antibiotic MIC, Linezolid ([6]; linezolid combined with peptide at 64 μg/ml): 0 µg/mL
Antibiotic MIC, Vancomycin ([6]; vancomycin combined with peptide at 1 μg/ml): >128 µg/mL
Antibiotic MIC, Vancomycin ([6]; vancomycin combined with peptide at 2 μg/ml): >128 µg/mL
Antibiotic MIC, Vancomycin ([6]; vancomycin combined with peptide at 4 μg/ml): 64 µg/mL
Antibiotic MIC, Vancomycin ([6]; vancomycin combined with peptide at 6 μg/ml): 16 µg/mL
Antibiotic MIC, Vancomycin ([6]; vancomycin combined with peptide at 8 μg/ml): 8 µg/mL
Antibiotic MIC, Vancomycin ([6]; vancomycin combined with peptide at 16 μg/ml): 2 µg/mL
Antibiotic MIC, Vancomycin ([6]; vancomycin combined with peptide at 32 μg/ml): 0 µg/mL
Antibiotic MIC, Vancomycin ([6]; vancomycin combined with peptide at 64 μg/ml): 0 µg/mL
Synergistic effect of antibacterial activity with existing antibiotics compared with PapMA-1 ([7]; A. baumannii and MDRAB 12035): higher level than the PapMA-1 peptide
Antibiotic MIC, Erythromycin [7, 8]: 32 µg/mL
Antibiotic MIC, Linezolid [7, 8]: >128 µg/mL
Antibiotic MIC, Vancomycin [7, 8]: >128 µg/mL
Antibiotic MIC, Erythromycin [7, 9]: 8 µg/mL
Antibiotic MIC, Linezolid [7, 9]: 128 µg/mL
Antibiotic MIC, Vancomycin [7, 9]: 128 µg/mL
Antibiotic MIC, Erythromycin [7, 10]: 4 µg/mL
Antibiotic MIC, Linezolid [7, 10]: 8 µg/mL
Antibiotic MIC, Vancomycin [7, 10]: 32 µg/mL
Antibiotic MIC, Erythromycin [7, 11]: 2 µg/mL
Antibiotic MIC, Linezolid [7, 11]: 8 µg/mL
Antibiotic MIC, Vancomycin [7, 11]: 16 µg/mL
Antibiotic MIC, Erythromycin [7, 12]: 0.25 µg/mL
Antibiotic MIC, Linezolid [7, 12]: 2 µg/mL
Antibiotic MIC, Vancomycin [7, 12]: 8 µg/mL
Antibiotic MIC, Erythromycin [7, 13]: 0.125 µg/mL
Antibiotic MIC, Linezolid [7, 13]: 0.5 µg/mL
Antibiotic MIC, Vancomycin [7, 13]: 2 µg/mL
Antibiotic MIC, Erythromycin [7, 14]: 0 µg/mL
Antibiotic MIC, Linezolid [7, 14]: 0 µg/mL
Antibiotic MIC, Vancomycin [7, 14]: 0 µg/mL
Antibiotic MIC, Erythromycin ([7]; combined with peptide at 64 μg/ml): 0 µg/mL
